{"source": "patent US20250367227A1", "about": "“FOLIC ACID-MODIFIED LIPOSOME-ENCAPSULATED TILIANIN NANOCRYSTAL (FA-Lipo@Til NC), PREPARATION METHOD AND USE THEREOF” (THE 1ST AFFILIATED HOSPITAL OF SHIHEZI UNIVERSITY, priority 2024, published 2025)", "key": {"[1]": {"details": "cited from earlier work"}, "[2]": {"experiment": "Dissolution behavior, dialysis diffusion method", "format": "physicochemical", "details": "37° C., dialysis bag 3,500 D, 4 h", "method": "The dissolution behavior of FA-Lipo@Til NCs in Example 3 was measured in different media (water, SGF, and SIF) at 37° C. using the dialysis diffusion method. 1 mL of Til raw material and Til NC preparation (containing 1 mg/mL of Til) were placed in a dialysis bag with a molecular weight cut-off of 3,500 D, which was then placed in 50 mL of dissolution medium and then placed in an oscillator with a frequency of 100 rpm at 37° C. Samples were taken at 1 min, 2 min, 3 min, 5 min, 10 min, 15 min, 30 min, 45 min, 60 min, 90 min, 120 min, 180 min, and 240 min, respectively. After taking the samples, the corresponding volume of medium was supplemented, and the samples were centrifuged (12,000 rpm, 10 min) and determined by HPLC. […] FA-Lipo@Til NCs were released more slowly than Til NCs. At 4 h, approximately 45% (in SGF) and 35% (in SIF) of Til in Lipo@Til NCs and FA-Lipo@Til NCs were released, while the cumulative release from Til NCs exceeded 55% (in SGF) and 65% (in SIF) within 4 h."}, "[3]": {"details": "37° C.; cited from earlier work"}, "[4]": {"tested_on": "Caco-2 cell monolayer", "experiment": "Caco-2 cell monolayer transport", "format": "in vitro ADME", "details": "Til by HPLC on basolateral side, 50 μg to 100 μg Til", "method": "The FA-Lipo@Til NCs obtained in Example 3 were tested using a Caco-2 cell culture monolayer model, Caco-2 cells were collected with a cell plating density of 1×10^5 […]. Cells were inoculated on the upper layer of the Transwell plate, 500 μL of diluted cell suspension was added to each well, and 600 μL of blank MEM medium was added to the lower layer, and the plates were placed in an incubator for culture; after 21 days of continuous culture, appropriate cell wells were selected, the upper and lower layers of the Transwell plate were replaced with HBSS balancing solution, and the plates were balanced in the incubator for 30 min. After removing the buffer, different concentrations of FA-Lipo@Til NCs (all diluted to 300 μL with HBSS containing 10% FBS) were added into the well, 100 μL of sample was taken from the lower layer of the Transwell plate at a specific time point, and an equal amount of HBSS buffer was supplemented, and the samples collected at different time points were used to detect the content of Til by HPLC. The cumulative release amount and Papp of the preparation were calculated. […] The transport amount of raw material Til through the monolayer was the lowest, while Til NCs were transported to the basolateral side over time, which was about 3 times that of the former at 4 h. […] FA ligands enhanced the internalization and transport of nanoparticles."}, "[5]": {"tested_on": "atherosclerotic plaques", "experiment": "In vivo pharmacodynamic evaluation in atherosclerosis model (ORO, H&E, Masson staining)", "parameters": "species or system ApoE-/- mice", "details": "p.o., 4 mg/kg once a day, 12 weeks, Model group 51.53%", "method": "AS model mice and initial treatment plan: ApoE^-/- mice were fed a high-fat diet for 12 weeks and then randomly divided into 5 groups: Model group (normal saline group); Crude Til group (p.o., 4 mg/kg); Til NCs group (p.o., 4 mg/kg); Lipo@Til NCs group (p.o., 4 mg/kg); FA-Lipo@Til NCs group in Example 3 (p.o., 4 mg/kg). The Control group was replaced by C57BL/6J mice fed with ordinary diet in the same cycle. The drug was administered orally once a day for 12 consecutive weeks, ApoE--mice continued to eat a high-fat diet throughout the treatment, and body weight changes were recorded 2 times a week. After 12 weeks of continuous administration, the mice were fasted but allowed to drink water 12 h before the experiment. Their eyeballs were removed to collect whole blood serum, and then the mice were dissected, their heart was exposed, and a small incision was made in the right atrium, and the whole body was perfused with pre-cooled saline until the outflowing fluid became clear. […]\nORO staining of the entire aorta: fat tissue stained bright red by ORO could interfere with the observation of plaques, such that the fat tissue around the blood vessels needed to be removed with fine forceps under a stereomicroscope. […] After photographing, the images were measured using ImageJ, and the percentage of plaques in the intima area was calculated to correct for differences in body size. […]"}}}
{"substance": "acacetin-7-glucoside [Til]", "values": [{"measurement": "absolute oral bioavailability", "setting": "[1]", "value": "1.350±0.710", "unit": "%"}, {"measurement": "cumulative release of Til in SGF", "setting": "[2]; SGF", "value": "about 4%"}, {"measurement": "cumulative release of Til in SIF", "setting": "[2]; SIF", "value": "about 4%"}, {"measurement": "solubility in aqueous media", "setting": "[3]", "value": 1.57, "unit": "µg/mL"}, {"measurement": "transport through the Caco-2 cell monolayer", "setting": "[4]", "value": "lowest"}, {"measurement": "average plaque area of the aorta (ORO staining)", "setting": "[5]", "value": "reduced"}]}
